Source: patent publication US12485147B2, “Method for producing cell mass including pituitary tissue, and cell mass thereof” (SUMITOMO CHEMICAL COMPANY, LIMITED, priority 2017, dated 2025)

How the values were obtained:
Format in all cases: cell-based
[1] = test system: Human ES cells (KhES-1 strain); assay: Addition conditions of Wnt signal transduction pathway inhibiting substance in production of cell mass containing pituitary tissue; bright field observation; conditions: day 28; for nonneural epithelial structure on surface of cell mass: IWP-2 2 μM, KY02111 5 μM, C-59 500 nM, LGK974 5 μM, XAV939 1 μM, IWR1-endo 1 μM added at start, with SB-431542, BMP4, SAG; for size and condition of cell mass: 2 μM IWP-2, 5 μM KY02111, 1 μM XAV939, 1 μM IWR1e
Experimental: (§1) Human ES cells (KhES-1 strain) were cultured under feeder-free conditions according to the method described in Scientific Reports, 4, 3594 (2014). As the feeder-free medium, StemFit medium was used and, as the feeder-free scaffold, Laminin 511-E8 was used.
(§2) Specific maintenance culturing operation was performed in the same manner as in Example 1.
Thereafter, suspension culturing in a 96 well plate was performed under conditions similar to those in Example 1 except that the kind or the presence or absence of the Wnt signal transduction pathway inhibiting substance to be added at the start of suspension culturing was changed. As the Wnt signal transduction pathway inhibiting substances, IWP-2, C-59 (manufactured by Cayman Chemicals, 500 nM), LGK974 (manufactured by Cayman Chemicals, 5 μM) which are PORCN inhibitors; XAV939 (manufactured by Cayman Chemicals, 1 μM), IWR1-endo (manufactured by Merck Millipore, 1 μM) which are TANK inhibitors, and KY02111 (manufactured by Cayman Chemicals, 5 μM) whose action mechanism has not been reported were added at the start of the suspension culturing, and the condition with the addition of DMSO alone as a control of no addition of a Wnt signal transduction pathway inhibiting substance was performed.
A serum-free medium not containing Y27632 and containing each Wnt signal transduction pathway inhibiting substance, SB-431542, BMP4, and SAG was added at 100 μl per well on day 2 from the start of suspension culturing. BMP4 was added at 3 nM to the medium so that the final concentration in the well would be 1.5 nM, and SAG was added at 4 μM to the medium so that the final concentration in the well would be 2 μM.
A half amount of the medium was changed with a serum-free medium not containing Y27632 or BMP4 and containing each Wnt signal transduction pathway inhibiting substance, SB-431542 and SAG on days 6, 10, 13, 17, 21, 24 from the start of suspension culturing. In addition to the above-mentioned conditions, the condition in which neither SB431542 nor a Wnt signal transduction pathway inhibiting substance is added during suspension culturing was also performed.
Bright field observation was performed using an inverted microscope (manufactured by KEYENCE CORPORATION, BIOREVO) on day 28 from the start of suspension culturing (FIGS. 7A-H).

[2] = test system: Human iPS cells (HC-6 #10 strain); assay: Cell mass from human iPS cells using Wnt signal transduction pathway activating substance (CHIR99021) and inhibiting substance in combination; bright field observation and immunostaining
Experimental: Human iPS cells (HC-6 #10 strain, obtained from RIKEN) were cultured under feeder-free conditions according to the method described in Scientific Reports, 4, 3594 (2014). As the feeder-free medium, StemFit medium was used and, as the feeder-free scaffold, Laminin 511-E8 was used. Specific maintenance culturing operation was performed in the same manner as in Example 1. The thus-prepared subconfluent human iPS cells were washed with PBS, subjected to an enzyme treatment using Accumax, a serum-free medium for differentiation induction was added, and the cells were scraped from the surface of the culture dish by using a cell scraper and dispersed into single cells by pipetting. Thereafter, the aforementioned human ES cells dispersed into single cells were suspended in 100 μl of a serum-free medium at 9×10^3 cells per well of a non-cell-adhesive 96-well culture plate (PrimeSurface […]-bottom plate, manufactured by SUMITOMO BAKELITE), and cultured in suspension under the conditions of 37° C., 5% CO2. As the serum-free medium ([…]) therefor, a serum-free medium which is a 1:1 mixture of F-12+Glutamax medium (manufactured by Thermo Fisher Scientific) and IMDM+Glutamax medium (manufactured by Thermo Fisher Scientific) supplemented with 5% Knockout Serum Replacement (manufactured by Thermo Fisher Scientific), 450 μM 1-monothioglycerol (manufactured by Wako Pure Chemical Industries, Ltd.), 1× Chemically defined lipid concentrate (manufactured by Thermo Fisher Scientific), 50 unit/ml penicillin-50 μg/ml streptomycin (manufactured by Nacalai Tesque) was used. At the time of the start of suspension culturing (day 0 from the start of suspension culturing, start of step 1), Y27632 (final concentration 20 μM), SB-431542 (TGFβ signal transduction pathway inhibiting substance, manufactured by Wako Pure Chemical Industries, Ltd., 1 μM), and IWP-2 (Wnt signal transduction pathway inhibiting substance, manufactured by Tocris Bioscience, 2 μM) were added to the aforementioned serum-free medium. In addition, conditions in which CHIR99021 (manufactured by Cayman Chemical) is added at 300 nM, 1 μM, 3 μM as a Wnt signal transduction pathway activating substance, and conditions in which DMSO alone is added as a control of no addition were set, totaling in 4 conditions. In the present Example, CHIR99021 is sometimes referred to as CHIR. A serum-free medium not containing Y27632 and containing SB-431542, IWP-2, BMP4 (BMP signal transduction pathway activating substance) and CHIR99021 under each condition set was added at 100 μl per well on day 2 from the start of suspension culturing. BMP4 was added at 3 nM to the medium so that the final concentration in the well would be 1.5 nM. As a method for inducing cell mass containing nonneural epithelium and placode, a half amount of the medium was changed with a serum-free medium not containing Y27632 or BMP4, and containing IWP-2, SB-431542, K02288 (BMP signal transduction pathway inhibiting substance, manufactured by AdooQ Bioscience), FGF2-TS (FGF signal transduction pathway activating substance, manufactured by HumanZyme) and Heparin Sodium (manufactured by FUJIFILM Wako Pure Chemical Corporation) on day 3 from the start of suspension culturing. K02288, FGF2, and Heparin Sodium were respectively added at 2 μM, 40 ng/ml, and 20 μg/ml to the medium so that the final concentration in the well would be respectively 1 μM, 20 ng/ml, and 10 μg/ml. A half amount of the medium was changed on day 6 and day 10 from the start of suspension culturing. On day 13 from the start of suspension culturing, bright field observation was performed under an inverted microscope (FIGS. 11A-D). […] The above-mentioned cell masses on day 13 of the culturing were fixed by a method similar to that in Example 1 to prepare cryosections. […]

[3] = test system: Human ES cells (KhES-1 strain); assay: TGFβ signal transduction pathway inhibitory conditions in production of cell mass containing pituitary tissue; conditions: IWP-2 added, no TGFβ signal transduction pathway inhibiting substance; day 28
Experimental: as §1, §2
Thereafter, suspension culturing in a 96 well plate was performed under conditions similar to those in Example 1 except that the concentration and kind of the TGFβ signal transduction pathway inhibiting substance to be added at the start of the suspension culturing are changed. As the TGFβ signal transduction pathway inhibiting substance therefor, SB431542 (1 or 10 μM), A 83-01 (manufactured by Cayman Chemicals, 1 or 10 μM), and RepSox (manufactured by Cayman Chemicals, 1 μM) were added at respective concentration conditions.
Thereafter, a serum-free medium not containing Y27632 and containing IWP-2, each TGFβ signal transduction pathway inhibiting substance, BMP4, and SAG was added at 100 μl per well on day 2 from the start of suspension culturing. BMP4 was added at 3 nM to the medium so that the final concentration in the well would be 1.5 nM, and SAG was added at 4 μM to the medium so that the final concentration in the well would be 2 μM.
A half amount of the medium was changed with a serum-free medium not containing Y27632 or BMP4 and containing IWP-2, each TGFβ signal transduction pathway inhibiting substance, and SAG on days 6, 10, 13, 17, 21, 24 from the start of suspension culturing. In addition to the above-mentioned conditions, the condition in which neither a TGFβ signal transduction pathway inhibiting substance nor IWP-2 is added during suspension culturing, and the condition in which IWP-2 is added and a TGFβ signal transduction pathway inhibiting substance is not added during suspension culturing were also performed.

[4] = test system: Human ES cells (KhES-1 strain); assay: Effect of compound treatment before differentiation induction in production of cell mass containing pituitary tissue; bright field observation; conditions: pre-treatment with 5 μM SB-431542 alone; day 28
Experimental: Human ES cells (KhES-1 strain) were cultured under feeder-free conditions according to the method described in Scientific Reports, 4, 3594 (2014). As the feeder-free medium, StemFit medium was used and, as the feeder-free scaffold, Laminin 511-E8 was used. Specific maintenance culturing operation was performed in the same manner as in Example 1. As a pre-treatment for differentiation induction of the cultured cells, cells under 4 conditions were maintenance cultured under conditions in which, condition in which nothing is simultaneously added with medium change with […] medium (Control), conditions in which 300 nM SAG alone is added (+300 nM SAG), conditions in which 5 μM SB-431542 alone is added (+5 μM SB-431542), and conditions in which SAG and SB431542 are simultaneously added (+SAG/SB) at 6 days after seeding. The next day of the above-mentioned treatment, human ES cells under 4 conditions that reached subconfluence were each subjected to differentiation induction by suspension culturing into a cell mass containing pituitary tissue according to the method described in Example 1. Bright field observation was performed under an inverted microscope on day 28 from the start of suspension culturing (FIGS. 6A-D).

[5] = 300 nM CHIR vs no addition, day 13

Cc1cc(-c2ccc(CC(=O)Nc3ccc(-c4cccnc4)cc3)cc2)ccn1 [C59]
nonneural epithelial structure on surface of cell mass [1]: cell masses having a nonneural epithelial structure on the surface were formed

Cc1c[nH]c(-c2cnc(NCCNc3ccc(C#N)cn3)nc2-c2ccc(Cl)cc2Cl)n1 [CHIR99021]
neural tissue in the inside [2, 5]: survival of neural tissue in the inside and epithelial formation were promoted
size of cell mass [2, 5]: larger cell masses were formed
marker-positive tissue formation (immunostaining) ([2]; 300 nM, 1 μM CHIR (also no addition), day 13): formation of Dlx5, Six1, E-Cadherin, N-Cadherin positive nonneural epithelium or placode precursor tissue
nonneural epithelium thickening and placode formation ([2]; 1 μM CHIR, day 13): thickening of nonneural epithelium on the outside and formation of placode were suppressed
formation of nonneural epithelial tissue on surface (bright field) ([2]; 3 μM CHIR99021, day 13): formation of nonneural epithelial tissue on the surface of cell mass is inhibited
formation of nonneural epithelium (immunostaining) ([2]; 3 μM CHIR, day 13): Formation of nonneural epithelium was not observed
growth of cell masses (bright field) ([2]; CHIR99021 300 nM, 1 μM, 3 μM in presence of IWP-2, day 13): cell masses grow in a concentration-dependent manner
level effective for growth of whole cell masses, survival of neural tissue in the inside and promotion of epithelial formation ([2]; in the presence of IWP-2): not more than 3 μM

Cc1ccc2nc(NC(=O)CSc3nc4c(c(=O)n3-c3ccccc3)SCC4)sc2c1 [IWP-2]
size and condition of cell mass [1]: large cell masses in good condition were formed
nonneural epithelial structure on surface of cell mass [1]: cell masses having a nonneural epithelial structure on the surface were formed
mesenchymal cell between outer nonneural epithelial tissue and inner neuroepithelial tissue [3]: a mesenchymal cell could not be confirmed
nonneural epithelial structure on surface of cell mass [3]: a nonneural epithelial structure was formed on the surface of the cell mass
size of cell mass [3]: the formed cell mass was small

O=C(Nc1cccc2cccnc12)c1ccc(N2C(=O)[C@@H]3[C@H](C2=O)[C@@H]2C=C[C@H]3C2)cc1 [IWR1-endo]
size and condition of cell mass [1]: large cell masses in good condition were formed
nonneural epithelial structure on surface of cell mass [1]: cell masses having a nonneural epithelial structure on the surface were formed

COc1ccc(CCC(=O)Nc2nc3ccc(Cl)cc3s2)cc1OC [KY02111]
size and condition of cell mass [1]: large cell masses in good condition were formed
nonneural epithelial structure on surface of cell mass [1]: cell masses having a nonneural epithelial structure on the surface were formed

Cc1cc(-c2ncc(CC(=O)Nc3ccc(-c4cnccn4)cn3)cc2C)ccn1 [LGK974]
nonneural epithelial structure on surface of cell mass [1]: cell masses having a nonneural epithelial structure on the surface were formed

NC(=O)c1ccc(-c2nc(-c3ccc4c(c3)OCO4)c(-c3ccccn3)[nH]2)cc1 [SB431542, 4-(5-benzol[1,3]dioxol-5-yl-4-pyridin-2-yl-1H-imidazol-2-yl)-benzamide]
cell mass formation [4]: larger cell masses containing pituitary tissues were formed
nonneural epithelial tissue on surface of cell mass ([1]; SB431542 added, no Wnt signal transduction pathway inhibiting substance): nonneural epithelial tissue was not formed on the surface of the cell masses

Oc1nc(-c2ccc(C(F)(F)F)cc2)nc2c1CSCC2 [XAV939]
size and condition of cell mass [1]: large cell masses in good condition were formed
nonneural epithelial structure on surface of cell mass [1]: cell masses having a nonneural epithelial structure on the surface were formed
